From ChEMBL document CHEMBL3751688, “Synthesis, in vitro antimycobacterial evaluation and docking studies of some new 5,6,7,8-tetrahydropyrido[4',3':4,5]thieno[2,3-d]pyrimidin-4(3H)-one schiff bases” (Bioorg Med Chem Lett, 2016)
In brackets after ≈: the same amount, converted by molar mass.

Key:
Type in all cases: functional
Staphylococcus aureus = assay: Antibacterial activity against Staphylococcus aureus MTCC 96 after 24 hrs by broth microdilution technique; conditions: MTCC 96, 24 h
Bacillus subtilis = assay: Antibacterial activity against Bacillus subtilis MTCC 441 after 24 hrs by broth microdilution technique; conditions: MTCC 441, 24 h
Escherichia coli = assay: Antibacterial activity against Escherichia coli MTCC 443 after 24 hrs by broth microdilution technique; conditions: MTCC 443, 24 h
Klebsiella pneumoniae = assay: Antibacterial activity against Klebsiella pneumoniae MTCC 109 after 24 hrs by broth microdilution technique; conditions: MTCC 109, 24 h
[1] = test system: Mycobacterium tuberculosis; assay: Antibacterial activity against Mycobacterium tuberculosis
[2] = test system: Mycobacterium tuberculosis; assay: Antimycobacterial activity against Mycobacterium tuberculosis H37Rv at 117 uM after 3 days by luciferase reporter phage assay; conditions: 72 h
[3] = test system: Mycobacterium tuberculosis; assay: Antimycobacterial activity against Mycobacterium tuberculosis H37Rv at 235 uM after 3 days by luciferase reporter phage assay; conditions: 72 h
[4] = test system: Mycobacterium tuberculosis; assay: Antimycobacterial activity against Mycobacterium tuberculosis H37Rv at 470 uM after 3 days by luciferase reporter phage assay; conditions: 72 h
[5] = test system: Mycobacterium tuberculosis; assay: Antimycobacterial activity against Mycobacterium tuberculosis H37Rv after 14 days by broth microdilution method; conditions: 336 h
[6] = test system: Mycobacterium tuberculosis; assay: Antimycobacterial activity against Mycobacterium tuberculosis H37Rv after 21 days by broth microdilution method; conditions: 504 h
[7] = test system: Mycobacterium tuberculosis; assay: Antimycobacterial activity against Mycobacterium tuberculosis H37Rv at 111 uM after 3 days by luciferase reporter phage assay; conditions: 72 h
[8] = test system: Mycobacterium tuberculosis; assay: Antimycobacterial activity against Mycobacterium tuberculosis H37Rv at 223 uM after 3 days by luciferase reporter phage assay; conditions: 72 h
[9] = test system: Mycobacterium tuberculosis; assay: Antimycobacterial activity against Mycobacterium tuberculosis H37Rv at 446 uM after 3 days by luciferase reporter phage assay; conditions: 72 h

Row | SMILES | MIC (Staphylococcus aureus) | MIC (Bacillus subtilis) | MIC (Escherichia coli) | MIC (Klebsiella pneumoniae) | further results
1 | O=c1c2c3c(sc2ncn1/N=C/c1ccccc1)CN(Cc1ccccc1)CC3 | 77 µM (≈ 30.8 µg/mL) | 77 µM (≈ 30.8 µg/mL) | 77 µM (≈ 30.8 µg/mL) | 155 µM (≈ 62.1 µg/mL) | 
2 | COc1cc(/C=N/n2c(C)nc3sc4c(c3c2=O)CCN(Cc2ccccc2)C4)cc(OC)c1OC | 248 µM (≈ 125 µg/mL) | 248 µM (≈ 125 µg/mL) | 248 µM (≈ 125 µg/mL) | 248 µM (≈ 125 µg/mL) | 
3 | Cc1nc2ccccn2c1C(=O)N/N=C/c1ccc(C(F)(F)F)cc1 |  |  |  |  | MIC [1]: 9.01 µM (≈ 3.12 µg/mL)
4 | N#Cc1ccc(/C=N/n2cnc3sc4c(c3c2=O)CCN(Cc2ccccc2)C4)cc1 | 35 µM (≈ 14.9 µg/mL) | 35 µM (≈ 14.9 µg/mL) | 16 µM (≈ 6.81 µg/mL) | 72 µM (≈ 30.6 µg/mL) | inhibition at 117 µM [2]: 0%; inhibition at 235 µM [3]: 9.7%; inhibition at 470 µM [4]: 69.9%; MIC [5]: 9 µM (≈ 3.83 µg/mL); MIC [6]: 9 µM (≈ 3.83 µg/mL)
5 | Cc1nc2sc3c(c2c(=O)n1/N=C/c1ccco1)CCN(Cc1ccccc1)C3 | 309 µM (≈ 125 µg/mL) | 309 µM (≈ 125 µg/mL) | 309 µM (≈ 125 µg/mL) | 153 µM (≈ 61.9 µg/mL) | 
6 | Cc1nc2sc3c(c2c(=O)n1/N=C/c1ccccc1[N+](=O)[O-])CCN(Cc1ccccc1)C3 | 135 µM (≈ 62 µg/mL) | 135 µM (≈ 62 µg/mL) | 135 µM (≈ 62 µg/mL) | 135 µM (≈ 62 µg/mL) | 
7 | O=c1c2c3c(sc2ncn1/N=C/c1ccc(F)cc1)CN(Cc1ccccc1)CC3 | 73 µM (≈ 30.6 µg/mL) | 73 µM (≈ 30.6 µg/mL) | 73 µM (≈ 30.6 µg/mL) | 147 µM (≈ 61.5 µg/mL) | 
8 | O=c1c2c3c(sc2ncn1/N=C/c1ccccc1[N+](=O)[O-])CN(Cc1ccccc1)CC3 | 139 µM (≈ 61.9 µg/mL) | 139 µM (≈ 61.9 µg/mL) | 139 µM (≈ 61.9 µg/mL) | 139 µM (≈ 61.9 µg/mL) | 
9 | COc1ccc(/C=N/n2c(C)nc3sc4c(c3c2=O)CCN(Cc2ccccc2)C4)cc1 | 69 µM (≈ 30.7 µg/mL) | 33 µM (≈ 14.7 µg/mL) | 33 µM (≈ 14.7 µg/mL) | 69 µM (≈ 30.7 µg/mL) | 
10 | Cc1nc2sc3c(c2c(=O)n1/N=C/c1ccc(Cl)cc1)CCN(Cc1ccccc1)C3 | 33 µM (≈ 14.8 µg/mL) | 33 µM (≈ 14.8 µg/mL) | 15 µM (≈ 6.73 µg/mL) | 69 µM (≈ 31 µg/mL) | inhibition at 111 µM [7]: 29.6%; inhibition at 223 µM [8]: 40.8%; inhibition at 446 µM [9]: 99.8%; MIC [5]: 8 µM (≈ 3.59 µg/mL); MIC [6]: 8 µM (≈ 3.59 µg/mL)
11 | O=c1c2c3c(sc2ncn1/N=C/c1ccc(O)cc1)CN(Cc1ccccc1)CC3 | 149 µM (≈ 62.1 µg/mL) | 149 µM (≈ 62.1 µg/mL) | 149 µM (≈ 62.1 µg/mL) | 149 µM (≈ 62.1 µg/mL) | 
12 | CC[C@@H](CO)NCCN[C@@H](CC)CO [ETHAMBUTOL] |  |  |  |  | MIC [5]: 4 µM (≈ 0.817 µg/mL); MIC [6]: 4 µM (≈ 0.817 µg/mL)
13 | Cc1nc2sc3c(c2c(=O)n1/N=C/c1cccs1)CCN(Cc1ccccc1)C3 | 297 µM (≈ 125 µg/mL) | 297 µM (≈ 125 µg/mL) | 297 µM (≈ 125 µg/mL) | 297 µM (≈ 125 µg/mL) | 
14 | O=c1c2c3c(sc2ncn1/N=C/c1ccc(Cl)cc1)CN(Cc1ccccc1)CC3 | 34 µM (≈ 14.8 µg/mL) | 34 µM (≈ 14.8 µg/mL) | 16 µM (≈ 6.96 µg/mL) | 71 µM (≈ 30.9 µg/mL) | MIC [5]: 20 µM (≈ 8.7 µg/mL); MIC [6]: 20 µM (≈ 8.7 µg/mL)
